Series [1] deals with Male Swiss-Webster mice. Nature of the series: Locomotor activity: stimulant and depressant effects (horizontal distance). It is filed as in vivo.
In series [2] the test system is Sprague Dawley rats. Nature of the series: Nasal airway pressure / resistance in anesthetized rats, normal and histamine-challenged. It is filed as in vivo. Particulars: 75% dose.
For another series, the system named is dogs. Nature of the series: Dosage required to raise mean arterial pressure (MAP) by 10%. In kind it is in vivo. The note with it: experimentally determined. As for the experimental part: Nasal airway pressure was measured using a Validyne pressure transducer (Validyne Engineering, Northridge, CA) with a 2.25 cm H2O range membrane connected to a multipen recorder (Grass Instruments, Quincy, MA). Air was passed through an in-line direct measure flow meter (Gilmont Instruments, Barrington, IL) connected to the nasal opening cannula. Pressure was measured in the line with a constant flow rate (150 ml/min) of air. Drugs were directly injected into the jugular vein using a 30 gauge needle. All injections were of a constant 0.1 ml volume. In the congestion challenged groups congestion was achieved by an intranasal administration of histamine (50 mM, 0.02 ml/nostril). The histamine was expelled after 2 minutes with a short nasal cannula airflow and subsequent enantiomeric drug doses were directly injected into the jugular vein. The dosage chosen for each drug was the amount needed to increase the mean arterial pressure (MAP) of the animal by 10%; this dosage served as the "100%" dose for the initial nasal airway studies. […] The dosage required for rats was calculated by proportionately adjusting the experimentally determined dog dosage to account for the lesser weight of the rats.

The test system of series [3] is Male Swiss-Webster mice. Nature of the series: H1 antihistamine (triprolidine) interaction study, locomotor activity. The note with it: pretreatment with 0.01, 0.1, or 1.0 mg/kg triprolidine 20 minutes before. In kind it is in vivo. As for the experimental part: H1 antihistamine interaction studies. […] The mice were then immediately placed in the activity-testing apparatus for a 2 hour session. […] Eight mice were tested for each triprolidine/sympathomimetic combination.
The dose-effect data were considered in 1-way analysis of variance, and planned individual comparisons were conducted between each dose and the saline control group.

The test system of series [4] is Sprague Dawley rats. Nature of the series: Mean arterial blood pressure after 75% dose in rats. Particulars: compared with (+)-ephedrine.
The test system of another series is α2-Receptor. In kind it is binding, mongrel dogs.

The structures appear in SMILES notation.

Consider `Cc1ccc(/C(=C\CN2CCCC2)c2ccccn2)cc1` [triprolidine], for which the “effect on horizontal distance” value in the series with Male Swiss-Webster mice [1] (mouse, in vivo) is on record as “failed to affect horizontal distance”. The effect on locomotion entry in the series with Male Swiss-Webster mice [1] (triprolidine alone, 50 and 100 mg/kg, beginning within 10 minutes, lasting 30 to 40 minutes) is listed as “Dose-dependent depression of locomotion”.

Take `CN[C@@H](C)[C@H](O)c1ccccc1` [(-)-ephedrine]: the “effect on normal airway decongestion” value in the series on Sprague Dawley rats [2] is recorded as “the same efficacious effect on normal airway decongestion”. In addition, the “Dosage required to raise MAP by 10%, Dog” value in the series with dogs is 100 µg/kg. Also, in the series on Male Swiss-Webster mice [3], the “interaction with triprolidine pretreatment (horizontal movement)” value (shortened to “interaction”) was “increased horizontal movement is observed”. In the series on Sprague Dawley rats [4], the “increase in blood pressure” value is “slightly greater (though significant) increase in blood pressure than (+)-ephedrine”.

Take `CC(N)Cc1ccccc1` (single isomer, unassigned; (+)) [(+)-amphetamine]: the “Locomotor stimulant effects, time course” value with Male Swiss-Webster mice [1] (2-hour session after i.p. injection, result in words) was “dose- and time-dependent increase in the distance traversed”.

`CNC[C@H](O)c1ccc(O)c(O)c1` [Epinephrine]: the “displacement of bound p-iodoclonidine” value in the series on α2-Receptor is “easily displaced all bound p-iodoclonidine”.

`CN[C@H](C)[C@@H](O)c1ccccc1` [(+)-ephedrine]: the “effect on normal airway decongestion” value in the series with Sprague Dawley rats [2] was “the same efficacious effect on normal airway decongestion”. The “Dosage required to raise MAP by 10%, Dog” value in the series on dogs is reported as 200 µg/kg. The “interaction” value in the series with Male Swiss-Webster mice [3] is reported as “no drug interaction is apparent”.

Regarding `CN[C@@H](C)[C@@H](O)c1ccccc1` [(+)-pseudoephedrine], the “Dosage required to raise MAP by 10%, Dog” value in the series with dogs amounted to 200 µg/kg. Further, the “interaction” value in the series on Male Swiss-Webster mice [3] was “increased horizontal movement is observed”.

For `CNC[C@H](O)c1cccc(O)c1` [(-)-phenylephrine], the “Dosage required to raise MAP by 10%, Dog” value with dogs was determined as 10 µg/kg.

(Values after EP1310247A1 (priority 1997, dated 1999).)
